Drawing on BindingDB's records for doi:10.1016/S0960-894X(01)80741-1 (1993), this text covers Ki for one compound.

A short description of this experiment: Compound was tested for inhibitory activity against carboxypeptidase A.

pKi: −log10 of the molar value.

For `O=C(O)[C@@H](CS)Cc1ccccc1` [(S)-2-Mercaptomethyl-3-phenyl-propionic acid], the negative logarithm of the Ki (pKi) (in general, the negative decadic logarithm of the Ki, by convention in mol/L) was 8.11.
